Results from patent US20260206813A1, “COMPOSITION FOR PROMOTING GHRELIN SECRETION” (Meiji Co., Ltd., priority 2022, published 2026).

Test system: mouse stomach-derived ghrelin-secreting cell line MGN3-1
Test: Secretion of active (acylated) ghrelin from MGN3-1 cells, ELISA
Assay type: cell-based
Conditions: for Acylated ghrelin (% control): 2 hours culture, control = 100; for ghrelin secretion promoting effect: conclusion from Table 3, absence of a gastric lipase
Method: The mouse stomach-derived ghrelin-secreting cell line MGN3-1 was seeded at 1×10^5 cells/well in a 96-well plate and cultured for 24 hours. After culturing, the cells were washed with 200 μL of Dulbecco's PBS, and 100 μL of each solution containing one test substance as indicated in Table 1 (buffer solution: 50 μM sodium octanoate/DMEM) was added (test group). The concentration of the test substance was applied at 10 μM or 30 μM. In the control group, 100 μL of a buffer solution without test substance was added. The number of trials performed, n, for each group was 4. After each group was cultured for 2 hours, a culture solution was recovered and centrifuged (800 g, 5 minutes, 4° C.) to obtain 80 μL of a supernatant. The supernatant was added with 8 μL of 1 N HCl and stored at −80° C. Next, active ghrelin (acylated ghrelin) in the sample was measured by the ELISA method (Ghrelin (Acylated) EIA Kit A05117, Bertin Pharma). Average values of measured values of the concentrations of ghrelin secreted when the test substances as indicated in Table 2 or Table 3 were added were calculated and indicated as values (%) assuming that the value of the control is 100 (Tables 2 and 3). The test was conducted again using the same testing method as described above, and the concentration of active ghrelin (acylated ghrelin) secreted in the sample was measured (FIGS. 2 and 3).
Statistical analysis was performed using a t-test or one-way ANOVA (one-way analysis of variance), and a multiple comparison test was conducted using the Tukey-Kramer test.

[1] = Table 3, test substance 30 μM, n=4
[2] = Table 2, test substance 10 μM, n=4
[3] = Table 2, test substance 30 μM, n=4

CCCCCCCC/C=C\CCCCCCCC(=O)OCC(CO)OC(=O)CCCCCCCCCCCCCCC (centres unmarked) [Test substance 7, 1-Oleoyl-2-palmitoylglycerol]
Acylated ghrelin (% control) [1]: 237 % control | ghrelin secretion promoting effect (30 μM): ghrelin secretion promoting effect

CCCCCCCC/C=C\CCCCCCCC(=O)OC(COC(=O)CCCCCCCCCCCCCCC)COC(=O)CCCCCCCCCCCCCCC [Test substance 10, 1,3-Dipalmitoyl-2-oleoylglycerol]
Acylated ghrelin (% control) [1]: 138 % control | ghrelin secretion promoting effect (30 μM): ghrelin secretion promoting effect | acylated ghrelin concentration as compared with the control (summary of Table 3, 30 μM): increased

CCCCCCCCCCCCCCCC(=O)OCC(O)CO (centres unmarked) [Test substance 3, 1-Monopalmitin]
difference of acylated ghrelin from the control (Table 2, 10 μM): no differences | acylated ghrelin concentration as compared with the control (Table 2, printed 30 M): increase | Acylated ghrelin (% control) [2]: 105 % control | Acylated ghrelin (% control) [3]: 134 % control

CCCCCCCC/C=C\CCCCCCCC(=O)OCC(O)CO (centres unmarked) [Test substance 5, 1-Monoolein]
Acylated ghrelin (% control) [2]: 177 % control | Acylated ghrelin (% control) [3]: 209 % control | Acylated ghrelin (% control) [1]: 388 % control

CCCCCCCC/C=C\CCCCCCCC(=O)OC(CO)CO [Test substance 6, 2-Monoolein]
Acylated ghrelin (% control) [2]: 193 % control | Acylated ghrelin (% control) [3]: 206 % control | Acylated ghrelin (% control) [1]: 336 % control

CCCCCCCC/C=C\CCCCCCCC(=O)OCC(COC(=O)CCCCCCC/C=C\CCCCCCCC)OC(=O)CCCCCCCCCCCCCCC [Test substance 9, 1,3-Dioleoyl-2-palmitoylglycerol]
Acylated ghrelin (% control) [1]: 116 % control | ghrelin secretion promoting effect (30 μM): ghrelin secretion promoting effect | acylated ghrelin concentration as compared with the control (summary of Table 3, 30 μM): increased

CCCCCCCCCCCCCCCC(=O)OC(CO)CO [Test substance 4, 2-Monopalmitin]
increase of acylated ghrelin concentration as compared with the control (FIG. 1, repeat test, 30 μM, n=4, significant (p<0.05)): about 1.2 times | Acylated ghrelin (% control) [2]: 168 % control | Acylated ghrelin (% control) [3]: 218 % control | Acylated ghrelin (% control) [1]: 389 % control

CCCCCCCC/C=C\CCCCCCCC(=O)OC(CO)COC(=O)CCCCCCCCCCCCCCC (centres unmarked) [Test substance 8, 1-Palmitoyl-2-oleoylglycerol]
Acylated ghrelin (% control) [1]: 206 % control | ghrelin secretion promoting effect (30 μM): ghrelin secretion promoting effect

CCCCCCCC/C=C\CCCCCCCC(=O)O [Test substance 2, Oleic acid]
Acylated ghrelin (% control) [2]: 146 % control | Acylated ghrelin (% control) [3]: 138 % control

CCCCCCCCCCCCCCCC(=O)O [Test substance 1, Palmitic acid, reference compound]
difference of acylated ghrelin from the control (Table 2, concentration not stated (10 μM and 30 μM tested)): no differences | Acylated ghrelin (% control) [2]: 82 % control | Acylated ghrelin (% control) [3]: 107 % control
